From patent US20260015325A1, “ALKOXY HETEROARYL- CARBOXAMIDE OR THIOAMIDE COMPOUNDS” (SYNGENTA CROP PROTECTION AG, priority 2022, published 2026)

Key:
Type in all cases: in vivo
[1] = system: Myzus persicae (Green Peach Aphid); assay: Myzus persicae (Green Peach Aphid): feeding/contact activity, sunflower leaf discs; conditions: foliar, 144 h, application rate of 200 ppm, mixed ages on sprayed sunflower leaf discs, 6 days after infestation, read-out: mortality
Method: Example B6: Myzus persicae (Green Peach Aphid): Feeding/Contact Activity
Sunflower leaf discs were placed onto agar in a 24-well microtiter plate and sprayed with aqueous test solutions prepared from 10′000 ppm DMSO stock solutions. After drying, the leaf discs were infested with an aphid population of mixed ages. The samples were assessed for mortality 6 days after infestation.

[2] = system: Tetranychus urticae (Two-Spotted Spider Mite); assay: whole plant or invertebrate; conditions: foliar, 192 h, application rate of 200 ppm, mixed population (mobile stages) on sprayed bean leaf discs, 8 days after infestation, read-out: mortality
Method: Example B11: Tetranychus urticae (Two-Spotted Spider Mite): Feeding/Contact Activity
Bean leaf discs on agar in 24-well microtiter plates were sprayed with aqueous test solutions prepared from 10′000 ppm DMSO stock solutions. After drying the leaf discs were infested with a mite population of mixed ages. The samples were assessed for mortality on mixed population (mobile stages) 8 days after infestation.

[3] = system: Myzus persicae (Green Peach Aphid); assay: Myzus persicae (Green Peach Aphid): intrinsic activity, sucrose solution; conditions: 120 h, test rate of 12 ppm, intrinsic, mixed with sucrose solution under Parafilm, 5 days after infestation, read-out: mortality
Source text: Example B8: Myzus persicae (Green Peach Aphid). Intrinsic Activity
Test compounds prepared from 10′000 ppm DMSO stock solutions were applied by pipette into 24-well microtiter plates and mixed with sucrose solution. The plates were closed with a stretched Parafilm. A plastic stencil with 24 holes was placed onto the plate and infested pea seedlings were placed directly on the Parafilm. The infested plate was closed with a gel blotting paper and another plastic stencil and then turned upside down. The samples were assessed for mortality 5 days after infestation.

Row | SMILES | mortality at 200 ppm [1] | mortality at 200 ppm [2] | mortality at 12 ppm [3]
1 | C[C@@H](COc1cnc(Cl)c(C(=O)N(C)CC(F)F)c1)NS(=O)(=O)C(F)(F)F [Compound P-59, 2-chloro-N-(2,2-difluoroethyl)-N-methyl-5-[(2S)-2-(trifluoromethylsulfonylamino)propoxy]pyridine-3-carboxamide] | ≥ 80% |  | 
2 | Cc1ncc(OC[C@H](C)NS(=O)(=O)C(F)(F)F)cc1C(=O)NC(C)C [Compound P-34, N-isopropyl-2-methyl-5-[(2S)-2-(trifluoromethylsulfonylamino)propoxy]pyridine-3-carboxamide] | ≥ 80% |  | 
3 | C[C@@H](COc1cnc(Cl)c(C(=O)Nc2ccc(S(C)(=O)=O)cc2F)c1)NS(=O)(=O)C(F)(F)F [Compound P-24, 2-chloro-N-(2-fluoro-4-methylsulfonyl-phenyl)-5-[(2S)-2-(trifluoromethylsulfonylamino)propoxy]pyridine-3-carboxamide] |  | ≥ 80% | 
4 | Cc1cnc(OC[C@H](C)NS(=O)(=O)C(F)(F)F)cc1C(=O)NCc1ccccc1 [Compound P-77, N-benzyl-5-methyl-2-[(2S)-2-(trifluoromethylsulfonylamino)propoxy]pyridine-4-carboxamide] |  | ≥ 80% | 
5 | C[C@@H](COc1cnc(Cl)c(C(=O)Nc2ncc(C#N)cc2F)c1)NS(=O)(=O)C(F)(F)F [Compound P-18, 2-chloro-N-(5-cyano-3-fluoro-2-pyridyl)-5-[(2S)-2-(trifluoromethylsulfonylamino)propoxy]pyridine-3-carboxamide] |  | ≥ 80% | 
6 | Cc1ncc(OC[C@H](C)NS(=O)(=O)C(F)(F)F)cc1C(=O)N(C)C1CC1 [Compound P-40, N-cyclopropyl-N,2-dimethyl-5-[(2S)-2-(trifluoromethylsulfonylamino)propoxy]pyridine-3-carboxamide] | ≥ 80% |  | 
7 | COCN([C@@H](C)COc1cc(C(=O)NC2CC2)c(Br)cn1)S(=O)(=O)C(F)(F)F [Compound P-81, 5-bromo-N-cyclopropyl-2-[(2S)-2-[methoxymethyl(trifluoromethylsulfonyl)amino]propoxy]pyridine-4-carboxamide] |  |  | ≥ 80%
8 | C[C@@H](COc1cc(C(=O)NC2CC2)c(Cl)cn1)NS(=O)(=O)C(F)(F)F [Compound P-87, 5-chloro-N-cyclopropyl-2-[(2S)-2-(trifluoromethylsulfonylamino)propoxy]pyridine-4-carboxamide] | ≥ 80% | ≥ 80% | ≥ 80%
9 | C[C@@H](COc1cnc(Cl)c(C(=O)NC2(C)CCOC2)c1)NS(=O)(=O)C(F)(F)F (stereo partly drawn) [Compound P-51, 2-chloro-N-(3-methyltetrahydrofuran-3-yl)-5-[(2S)-2-(trifluoromethylsulfonylamino)propoxy]pyridine-3-carboxamide] |  | ≥ 80% | 
10 | C[C@@H](COc1cnc(Cl)c(C(=O)Nc2ncc(Cl)cc2F)c1)NS(=O)(=O)C(F)(F)F [Compound P-19, 2-chloro-N-(5-chloro-3-fluoro-2-pyridyl)-5-[(2S)-2-(trifluoromethylsulfonylamino)propoxy]pyridine-3-carboxamide] |  |  | ≥ 80%
11 | Cc1ncc(OC[C@H](C)NS(=O)(=O)C(F)(F)F)cc1C(=O)NCc1ncccc1Cl [Compound P-32, N-[(3-chloro-2-pyridyl)methyl]-2-methyl-5-[(2S)-2-(trifluoromethylsulfonylamino)propoxy]pyridine-3-carboxamide] | ≥ 80% | ≥ 80% | 
12 | CCNC(=O)c1cc(OC[C@H](C)NS(=O)(=O)C(F)(F)F)cnc1C [Compound P-36, N-ethyl-2-methyl-5-[(2S)-2-(trifluoromethylsulfonylamino)propoxy]pyridine-3-carboxamide] | ≥ 80% |  | 
13 | Cc1cnc(OC[C@H](C)NS(=O)(=O)C(F)(F)F)cc1C(=O)Nc1cccc(C#N)c1F [Compound P-75, N-(3-cyano-2-fluoro-phenyl)-5-methyl-2-[(2S)-2-(trifluoromethylsulfonylamino)propoxy]pyridine-4-carboxamide] | ≥ 80% |  | 
14 | CCN1OC[C@H](NC(=O)c2cc(OC[C@H](C)NS(=O)(=O)C(F)(F)F)cnc2Cl)C1=O [Compound P-49, 2-chloro-N-[(4S)-2-ethyl-3-oxo-isoxazolidin-4-yl]-5-[(2S)-2-(trifluoromethylsulfonylamino)propoxy]pyridine-3-carboxamide] | ≥ 80% | ≥ 80% | 
15 | CCN1OC[C@@H](NC(=O)c2cc(OC[C@H](C)N(COC)S(=O)(=O)C(F)(F)F)ncc2C)C1=O [Compound P-78, N-[(4R)-2-ethyl-3-oxo-isoxazolidin-4-yl]-2-[(2S)-2-[methoxymethyl(trifluoromethylsulfonyl)amino]propoxy]-5-methyl-pyridine-4-carboxamide] | ≥ 80% | ≥ 80% | 
16 | Cc1ncc(OC[C@H](C)NS(=O)(=O)C(F)(F)F)cc1C(=O)NCC(F)F [Compound P-39, N-(2,2-difluoroethyl)-2-methyl-5-[(2S)-2-(trifluoromethylsulfonylamino)propoxy]pyridine-3-carboxamide] |  | ≥ 80% | 
17 | COCN([C@@H](C)COc1cc(C(=O)NC2(C#N)CC2)c(C)cn1)S(=O)(=O)C(F)(F)F [Compound P-79, N-(1-cyanocyclopropyl)-2-[(2S)-2-[methoxymethyl(trifluoromethylsulfonyl)amino]propoxy]-5-methyl-pyridine-4-carboxamide] |  | ≥ 80% | 
18 | C[C@@H](COc1cnc(Cl)c(C(=O)NCc2ccccc2)c1)NS(=O)(=O)C(F)(F)F [Compound P-44, N-benzyl-2-chloro-5-[(2S)-2-(trifluoromethylsulfonylamino)propoxy]pyridine-3-carboxamide] |  | ≥ 80% | 
19 | CCc1ncsc1NC(=O)c1cc(OC[C@H](C)NS(=O)(=O)C(F)(F)F)ncc1C [Compound P-68, N-(4-ethylthiazol-5-yl)-5-methyl-2-[(2S)-2-(trifluoromethylsulfonylamino)propoxy]pyridine-4-carboxamide] | ≥ 80% |  | 
20 | COCCC#CC(C)(C)NC(=O)c1cc(OC[C@H](C)NS(=O)(=O)C(F)(F)F)ncc1C [Compound P-72, N-(5-methoxy-1,1-dimethyl-pent-2-ynyl)-5-methyl-2-[(2S)-2-(trifluoromethylsulfonylamino)propoxy]pyridine-4-carboxamide] | ≥ 80% |  | 
21 | Cc1cnc(OC[C@H](C)NS(=O)(=O)C(F)(F)F)cc1C(=O)NCc1ccc2c(c1)COC2 [Compound P-69, N-(1,3-dihydroisobenzofuran-5-ylmethyl)-5-methyl-2-[(2S)-2-(trifluoromethylsulfonylamino)propoxy]pyridine-4-carboxamide] | ≥ 80% |  | 
22 | C[C@@H](COc1cnc(Cl)c(C(=O)NCC(F)F)c1)NS(=O)(=O)C(F)(F)F [Compound P-55, 2-chloro-N-(2,2-difluoroethyl)-5-[(2S)-2-(trifluoromethylsulfonylamino)propoxy]pyridine-3-carboxamide] | ≥ 80% |  | ≥ 80%
23 | Cc1cnc(OC[C@H](C)NS(=O)(=O)C(F)(F)F)cc1C(=O)NCC(F)(F)F [Compound P-80, 5-methyl-N-(2,2,2-trifluoroethyl)-2-[(2S)-2-(trifluoromethylsulfonylamino)propoxy]pyridine-4-carboxamide] |  | ≥ 80% | 
24 | Cc1cnc(OC[C@H](C)NS(=O)(=O)C(F)(F)F)cc1C(=O)N(C)C1(C#N)CC1 [Compound P-67, N-(1-cyanocyclopropyl)-N,5-dimethyl-2-[(2S)-2-(trifluoromethylsulfonylamino)propoxy]pyridine-4-carboxamide] | ≥ 80% |  | 
25 | C[C@@H](COc1cnc(Cl)c(C(=O)NCC(=O)NCC2CC2)c1)NS(=O)(=O)C(F)(F)F [Compound P-53, 2-chloro-N-[2-(cyclopropylmethylamino)-2-oxo-ethyl]-5-[(2S)-2-(trifluoromethylsulfonylamino)propoxy]pyridine-3-carboxamide] | ≥ 80% |  | 
26 | Cc1ncc(OC[C@H](C)NS(=O)(=O)C(F)(F)F)cc1C(=O)Nc1ccc(F)cc1F [Compound P-33, N-(2,4-difluorophenyl)-2-methyl-5-[(2S)-2-(trifluoromethylsulfonylamino)propoxy]pyridine-3-carboxamide] |  | ≥ 80% | 
27 | Cc1cnc(OC[C@H](C)NS(=O)(=O)C(F)(F)F)cc1C(=O)NC(C)C1CC1 (stereo partly drawn) [Compound P-73, N-(1-cyclopropylethyl)-5-methyl-2-[(2S)-2-(trifluoromethylsulfonylamino)propoxy]pyridine-4-carboxamide] | ≥ 80% |  | 
28 | Cc1ncc(OC[C@H](C)NS(=O)(=O)C(F)(F)F)cc1C(=O)NC1CC(F)(F)C1 [Compound P-37, N-(3,3-difluorocyclobutyl)-2-methyl-5-[(2S)-2-(trifluoromethylsulfonylamino)propoxy]pyridine-3-carboxamide] |  | ≥ 80% | 
29 | Cc1cnc(OC[C@H](C)NS(=O)(=O)C(F)(F)F)cc1C(=O)NC(C)c1cccnc1 (stereo partly drawn) [Compound P-76, 5-methyl-N-[1-(3-pyridyl)ethyl]-2-[(2S)-2-(trifluoromethylsulfonylamino)propoxy]pyridine-4-carboxamide] | ≥ 80% |  | 
